Data: the kinase profiling compilation of Christmann-Franck et al. (2016)

Experiments:
Experiment in all cases: radiometric filter-binding kinase assay
EPHA2 (human) = EPHA2 (human) (UniProt P29317)
MAP2K6 (human) = MAP2K6 (human) (UniProt P52564)
CaMK1 (human) = CaMK1 (human) (UniProt Q14012)
DYRK1A (human) = DYRK1A (human) (UniProt Q13627)
PAK6 (human) = PAK6 (human) (UniProt Q9NQU5)
PRKCZ (human) = PRKCZ (human) (UniProt Q05513)
ROCK2 (rat) = conditions: accession and sequence are those of the human protein
[1] = system: AKT1 (human), P31749 [S473D]
MARK3 (human) = MARK3 (human) (UniProt P27448)
IKBKE (human) = IKBKE (human) (UniProt Q14164)
CSNK2A1 (human) = CSNK2A1 (human) (UniProt P68400)
PAK7 (human) = PAK7 (human) (UniProt Q9P286)
HIPK2 (human) = HIPK2 (human) (UniProt Q9H2X6)
PAK4 (human) = PAK4 (human) (UniProt O96013)
HIPK3 (human) = HIPK3 (human) (UniProt Q9H422)
EPHB1 (human) = EPHB1 (human) (UniProt P54762)
EPHB3 (human) = EPHB3 (human) (UniProt P54753)
ERBB4 (human) = ERBB4 (human) (UniProt Q15303)
DYRK3 (human) = DYRK3 (human) (UniProt O43781)
MAP3K9 (human) = MAP3K9 (human) (UniProt P80192)
MAPKAPK5 (human) = MAPKAPK5 (human) (UniProt Q8IW41)
TAOK1 (human) = TAOK1 (human) (UniProt Q7L7X3)
HIPK1 (human) = HIPK1 (human) (UniProt Q86Z02)
MST4 (human) = MST4 (human) (UniProt Q9P289)
NEK6 (human) = NEK6 (human) (UniProt Q9HC98)
BTK (human) = BTK (human) (UniProt Q06187)
NUAK1 (human) = NUAK1 (human) (UniProt O60285)
RPS6KA5 KD1 KD2 (human) = RPS6KA5 KD1 KD2 (human) (UniProt O75582)
EEF2K (human) = EEF2K (human) (UniProt O00418)
LCK (mouse) = conditions: accession and sequence are those of the human protein
DAPK1 (human) = DAPK1 (human) (UniProt P53355)
MAPK13 (human) = MAPK13 (human) (UniProt O15264)
MAPK11 (human) = MAPK11 (human) (UniProt Q15759)
MAPK14 (human) = MAPK14 (human) (UniProt Q16539)
MARK1 (human) = MARK1 (human) (UniProt Q9P0L2)
DYRK2 (human) = DYRK2 (human) (UniProt Q92630)

Chain of PAK6 (human) (Q9NQU5 whole entry, looked up): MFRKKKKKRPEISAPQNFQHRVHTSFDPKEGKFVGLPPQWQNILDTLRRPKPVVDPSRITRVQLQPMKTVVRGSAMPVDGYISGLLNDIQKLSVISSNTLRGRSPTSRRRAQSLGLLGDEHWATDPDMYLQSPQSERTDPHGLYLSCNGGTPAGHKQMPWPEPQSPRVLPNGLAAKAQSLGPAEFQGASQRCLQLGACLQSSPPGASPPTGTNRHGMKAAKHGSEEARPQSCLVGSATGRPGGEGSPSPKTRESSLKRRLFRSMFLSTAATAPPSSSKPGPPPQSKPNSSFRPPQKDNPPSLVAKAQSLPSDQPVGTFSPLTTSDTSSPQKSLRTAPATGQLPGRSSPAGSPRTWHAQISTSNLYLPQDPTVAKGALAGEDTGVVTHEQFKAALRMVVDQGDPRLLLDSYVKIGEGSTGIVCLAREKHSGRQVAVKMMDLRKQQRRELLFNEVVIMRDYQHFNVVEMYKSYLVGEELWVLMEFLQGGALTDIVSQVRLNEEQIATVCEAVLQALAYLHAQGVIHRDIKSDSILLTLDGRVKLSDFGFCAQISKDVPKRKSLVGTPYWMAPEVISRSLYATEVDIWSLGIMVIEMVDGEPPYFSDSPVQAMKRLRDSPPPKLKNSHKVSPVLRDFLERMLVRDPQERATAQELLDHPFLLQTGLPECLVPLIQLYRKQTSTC
Chain of MARK3 (human) (P27448 whole entry, looked up): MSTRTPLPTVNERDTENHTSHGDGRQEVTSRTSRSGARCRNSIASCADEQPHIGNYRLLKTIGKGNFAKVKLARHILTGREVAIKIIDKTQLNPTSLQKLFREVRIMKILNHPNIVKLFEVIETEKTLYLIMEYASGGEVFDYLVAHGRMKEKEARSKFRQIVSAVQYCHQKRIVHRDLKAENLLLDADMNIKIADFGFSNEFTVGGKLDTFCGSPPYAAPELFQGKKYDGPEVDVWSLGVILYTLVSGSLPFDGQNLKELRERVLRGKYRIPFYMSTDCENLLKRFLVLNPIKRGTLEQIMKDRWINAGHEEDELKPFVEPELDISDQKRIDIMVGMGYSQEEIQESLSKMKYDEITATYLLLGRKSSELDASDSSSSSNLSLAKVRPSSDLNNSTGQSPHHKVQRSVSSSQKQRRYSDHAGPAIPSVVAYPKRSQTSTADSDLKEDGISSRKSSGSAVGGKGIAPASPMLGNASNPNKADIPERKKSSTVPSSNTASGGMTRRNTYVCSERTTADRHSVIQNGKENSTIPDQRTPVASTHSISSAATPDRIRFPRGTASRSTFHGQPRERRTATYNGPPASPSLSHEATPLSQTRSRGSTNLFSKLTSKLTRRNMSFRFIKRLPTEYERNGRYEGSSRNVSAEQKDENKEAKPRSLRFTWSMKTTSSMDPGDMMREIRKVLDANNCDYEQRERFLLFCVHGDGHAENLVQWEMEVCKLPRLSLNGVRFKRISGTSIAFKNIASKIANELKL
Chain of HIPK3 (human) (Q9H422 whole entry, looked up): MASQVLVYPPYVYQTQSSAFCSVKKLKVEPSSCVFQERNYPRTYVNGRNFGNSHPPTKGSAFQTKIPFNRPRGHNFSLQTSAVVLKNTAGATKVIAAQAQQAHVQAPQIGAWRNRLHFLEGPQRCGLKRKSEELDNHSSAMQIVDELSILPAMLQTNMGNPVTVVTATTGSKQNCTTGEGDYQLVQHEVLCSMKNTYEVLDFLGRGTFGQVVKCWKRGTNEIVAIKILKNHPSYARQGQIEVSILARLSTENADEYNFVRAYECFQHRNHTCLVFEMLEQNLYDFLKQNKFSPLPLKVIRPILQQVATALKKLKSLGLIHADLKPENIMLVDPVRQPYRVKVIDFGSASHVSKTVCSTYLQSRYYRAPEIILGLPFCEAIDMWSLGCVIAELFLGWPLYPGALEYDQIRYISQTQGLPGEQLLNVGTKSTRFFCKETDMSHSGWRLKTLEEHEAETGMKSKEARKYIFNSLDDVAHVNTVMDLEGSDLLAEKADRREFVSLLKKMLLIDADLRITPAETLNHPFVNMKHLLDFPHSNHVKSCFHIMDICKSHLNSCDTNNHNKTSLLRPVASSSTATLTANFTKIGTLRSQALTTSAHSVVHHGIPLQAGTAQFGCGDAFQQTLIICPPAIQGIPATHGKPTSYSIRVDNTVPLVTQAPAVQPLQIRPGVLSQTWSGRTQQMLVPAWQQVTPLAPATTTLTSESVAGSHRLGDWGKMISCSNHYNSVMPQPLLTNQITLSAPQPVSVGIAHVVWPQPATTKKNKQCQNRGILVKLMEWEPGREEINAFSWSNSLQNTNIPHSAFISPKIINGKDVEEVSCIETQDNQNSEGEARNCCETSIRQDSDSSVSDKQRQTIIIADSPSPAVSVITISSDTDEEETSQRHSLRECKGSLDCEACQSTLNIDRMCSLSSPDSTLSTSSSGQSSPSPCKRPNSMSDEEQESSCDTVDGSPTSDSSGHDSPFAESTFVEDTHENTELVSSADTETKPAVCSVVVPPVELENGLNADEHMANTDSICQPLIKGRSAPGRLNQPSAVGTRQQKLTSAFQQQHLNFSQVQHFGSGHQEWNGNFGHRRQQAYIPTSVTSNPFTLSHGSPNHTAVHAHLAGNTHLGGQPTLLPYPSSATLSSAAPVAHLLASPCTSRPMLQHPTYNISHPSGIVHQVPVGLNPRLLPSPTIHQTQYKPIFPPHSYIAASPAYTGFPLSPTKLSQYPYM
Chain of MST4 (human) (Q9P289 whole entry, looked up): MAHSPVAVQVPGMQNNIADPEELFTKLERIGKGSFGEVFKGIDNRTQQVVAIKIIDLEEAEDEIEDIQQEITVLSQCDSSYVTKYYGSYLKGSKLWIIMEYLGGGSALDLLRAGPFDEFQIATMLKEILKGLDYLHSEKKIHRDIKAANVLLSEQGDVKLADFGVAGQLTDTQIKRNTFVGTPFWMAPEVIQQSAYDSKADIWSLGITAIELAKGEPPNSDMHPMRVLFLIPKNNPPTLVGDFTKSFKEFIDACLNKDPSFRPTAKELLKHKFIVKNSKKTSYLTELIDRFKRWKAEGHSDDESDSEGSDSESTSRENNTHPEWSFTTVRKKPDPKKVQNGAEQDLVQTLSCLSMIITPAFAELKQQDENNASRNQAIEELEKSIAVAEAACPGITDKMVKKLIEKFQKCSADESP
Chain of IKBKE (human) (Q14164 whole entry, looked up): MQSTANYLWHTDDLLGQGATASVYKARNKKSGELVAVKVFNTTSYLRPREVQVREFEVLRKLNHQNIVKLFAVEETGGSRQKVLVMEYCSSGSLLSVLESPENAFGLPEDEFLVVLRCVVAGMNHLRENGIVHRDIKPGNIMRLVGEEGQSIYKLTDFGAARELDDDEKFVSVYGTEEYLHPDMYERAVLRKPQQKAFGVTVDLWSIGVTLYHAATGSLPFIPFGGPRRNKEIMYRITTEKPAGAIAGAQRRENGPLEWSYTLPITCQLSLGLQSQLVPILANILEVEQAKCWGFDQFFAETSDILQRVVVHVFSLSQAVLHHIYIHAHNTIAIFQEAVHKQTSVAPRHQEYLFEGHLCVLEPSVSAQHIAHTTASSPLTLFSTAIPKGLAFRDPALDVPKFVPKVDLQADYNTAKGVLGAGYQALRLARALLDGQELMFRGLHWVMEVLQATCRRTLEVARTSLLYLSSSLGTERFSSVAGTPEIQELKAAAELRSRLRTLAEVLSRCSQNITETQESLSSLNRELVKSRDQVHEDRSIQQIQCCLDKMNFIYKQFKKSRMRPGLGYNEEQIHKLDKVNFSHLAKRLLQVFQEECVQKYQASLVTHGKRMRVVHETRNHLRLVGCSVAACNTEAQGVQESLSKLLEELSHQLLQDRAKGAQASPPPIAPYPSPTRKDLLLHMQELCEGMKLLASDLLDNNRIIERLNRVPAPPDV
Chain of MAPKAPK5 (human) (Q8IW41 whole entry, looked up): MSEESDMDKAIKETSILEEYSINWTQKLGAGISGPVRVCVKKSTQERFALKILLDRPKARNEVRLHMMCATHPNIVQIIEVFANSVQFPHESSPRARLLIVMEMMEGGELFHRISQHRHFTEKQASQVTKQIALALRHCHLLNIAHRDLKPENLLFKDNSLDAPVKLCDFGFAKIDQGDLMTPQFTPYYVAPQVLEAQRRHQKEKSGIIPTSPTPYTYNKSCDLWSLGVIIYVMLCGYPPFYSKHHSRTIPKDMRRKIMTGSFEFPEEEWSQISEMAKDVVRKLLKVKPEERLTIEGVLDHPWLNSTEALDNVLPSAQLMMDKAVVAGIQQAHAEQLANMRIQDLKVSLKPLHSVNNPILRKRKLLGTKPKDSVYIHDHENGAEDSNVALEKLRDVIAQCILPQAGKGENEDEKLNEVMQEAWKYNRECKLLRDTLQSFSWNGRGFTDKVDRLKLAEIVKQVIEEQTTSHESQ
Chain of RPS6KA5 KD1 KD2 (human) (O75582 whole entry, looked up): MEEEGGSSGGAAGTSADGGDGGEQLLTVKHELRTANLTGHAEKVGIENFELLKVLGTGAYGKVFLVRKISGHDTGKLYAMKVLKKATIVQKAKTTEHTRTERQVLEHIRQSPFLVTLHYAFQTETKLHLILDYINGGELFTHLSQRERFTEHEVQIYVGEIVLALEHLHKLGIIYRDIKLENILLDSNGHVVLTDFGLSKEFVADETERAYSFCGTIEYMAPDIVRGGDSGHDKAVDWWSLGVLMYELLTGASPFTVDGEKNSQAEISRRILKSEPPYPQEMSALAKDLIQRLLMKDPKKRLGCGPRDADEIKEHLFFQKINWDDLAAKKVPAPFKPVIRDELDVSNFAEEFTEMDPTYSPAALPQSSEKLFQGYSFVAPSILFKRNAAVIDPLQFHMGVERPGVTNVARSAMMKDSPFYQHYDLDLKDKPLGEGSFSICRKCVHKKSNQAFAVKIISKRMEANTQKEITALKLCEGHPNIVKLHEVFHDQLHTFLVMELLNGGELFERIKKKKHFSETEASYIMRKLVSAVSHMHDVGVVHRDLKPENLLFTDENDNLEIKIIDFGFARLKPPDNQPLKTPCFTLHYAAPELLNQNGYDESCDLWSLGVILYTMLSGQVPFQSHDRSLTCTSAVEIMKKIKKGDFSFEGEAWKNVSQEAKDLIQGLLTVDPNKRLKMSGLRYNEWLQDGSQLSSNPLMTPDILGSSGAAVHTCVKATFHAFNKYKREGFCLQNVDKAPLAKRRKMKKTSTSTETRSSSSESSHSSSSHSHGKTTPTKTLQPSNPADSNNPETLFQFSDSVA

Work on `O=C(Nc1ccccc1-c1cn2c(CN3CCNCC3)csc2n1)c1cnc2ccccc2n1` yielded a residual activity (EPHA2 (human); compound 0.1 µM) of 97%, a residual activity (EPHA2 (human); compound 1.0 µM) of 99% and a residual activity (EPHA2 (human); compound 10.0 µM) of 84%. For the same compound, the residual activity (MAP2K6 (human); compound 1.0 µM) was 97%, the residual activity (MAP2K6 (human); compound 10.0 µM) was 98% and the residual activity (CaMK1 (human); compound 0.1 µM) was 109%. The residual activity (CaMK1 (human); compound 1.0 µM) was 83%, the residual activity (CaMK1 (human); compound 10.0 µM) was 22% and the residual activity (DYRK1A (human); compound 0.1 µM) was 101%. It also gave a residual activity (DYRK1A (human); compound 1.0 µM) of 94%, a residual activity (DYRK1A (human); compound 10.0 µM) of 58% and a residual activity (PAK6 (human); compound 0.1 µM) of 101%. The residual activity (PAK6 (human); compound 1.0 µM) was 92%, the residual activity (PAK6 (human); compound 10.0 µM) was 87% and the residual activity (PRKCZ (human); compound 0.1 µM) was 78%. The residual activity (PRKCZ (human); compound 1.0 µM) was 105%, the residual activity (PRKCZ (human); compound 10.0 µM) was 103% and the residual activity (ROCK2 (rat); compound 0.1 µM) was 100%. For the same compound, the residual activity (ROCK2 (rat); compound 1.0 µM) was 89%, the residual activity (ROCK2 (rat); compound 10.0 µM) was 79% and the residual activity ([1]; compound 0.1 µM) was 86%. It also gave a residual activity ([1]; compound 1.0 µM) of 91%, a residual activity ([1]; compound 10.0 µM) of 88% and a residual activity (MARK3 (human); compound 0.1 µM) of 100%. For the same compound, the residual activity (MARK3 (human); compound 1.0 µM) was 108%, the residual activity (MARK3 (human); compound 10.0 µM) was 99% and the residual activity (IKBKE (human); compound 0.1 µM) was 90%. The residual activity (IKBKE (human); compound 1.0 µM) was 102%, the residual activity (IKBKE (human); compound 10.0 µM) was 83% and the residual activity (CSNK2A1 (human); compound 0.1 µM) was 90%. The residual activity (CSNK2A1 (human); compound 1.0 µM) was 102%, the residual activity (CSNK2A1 (human); compound 10.0 µM) was 77% and the residual activity (PAK7 (human); compound 0.1 µM) was 79%. It also gave a residual activity (PAK7 (human); compound 1.0 µM) of 91%, a residual activity (PAK7 (human); compound 10.0 µM) of 72% and a residual activity (HIPK2 (human); compound 1.0 µM) of 86%. It also gave a residual activity (HIPK2 (human); compound 10.0 µM) of 38%, a residual activity (PAK4 (human); compound 0.1 µM) of 83% and a residual activity (PAK4 (human); compound 1.0 µM) of 110%. For the same compound, the residual activity (PAK4 (human); compound 10.0 µM) was 96%, the residual activity (HIPK3 (human); compound 0.1 µM) was 88% and the residual activity (HIPK3 (human); compound 1.0 µM) was 92%. For the same compound, the residual activity (HIPK3 (human); compound 10.0 µM) was 73%, the residual activity (EPHB1 (human); compound 1.0 µM) was 102% and the residual activity (EPHB1 (human); compound 10.0 µM) was 88%. It also gave a residual activity (EPHB3 (human); compound 0.1 µM) of 99%, a residual activity (EPHB3 (human); compound 1.0 µM) of 99% and a residual activity (EPHB3 (human); compound 10.0 µM) of 90%. It also gave a residual activity (ERBB4 (human); compound 1.0 µM) of 80%, a residual activity (ERBB4 (human); compound 10.0 µM) of 86% and a residual activity (DYRK3 (human); compound 0.1 µM) of 82%. For the same compound, the residual activity (DYRK3 (human); compound 1.0 µM) was 91%, the residual activity (DYRK3 (human); compound 10.0 µM) was 64% and the residual activity (MAP3K9 (human); compound 1.0 µM) was 92%. For the same compound, the residual activity (MAP3K9 (human); compound 10.0 µM) was 40%, the residual activity (MAPKAPK5 (human); compound 0.1 µM) was 101% and the residual activity (MAPKAPK5 (human); compound 1.0 µM) was 91%. For the same compound, the residual activity (MAPKAPK5 (human); compound 10.0 µM) was 105%, the residual activity (TAOK1 (human); compound 1.0 µM) was 86% and the residual activity (TAOK1 (human); compound 10.0 µM) was 97%. It also gave a residual activity (HIPK1 (human); compound 1.0 µM) of 104%, a residual activity (HIPK1 (human); compound 10.0 µM) of 91% and a residual activity (MST4 (human); compound 0.1 µM) of 73%. It also gave a residual activity (MST4 (human); compound 1.0 µM) of 100%, a residual activity (MST4 (human); compound 10.0 µM) of 77% and a residual activity (NEK6 (human); compound 0.1 µM) of 84%. It also gave a residual activity (NEK6 (human); compound 1.0 µM) of 108%, a residual activity (NEK6 (human); compound 10.0 µM) of 83% and a residual activity (BTK (human); compound 0.1 µM) of 88%. The residual activity (BTK (human); compound 1.0 µM) was 99%, the residual activity (BTK (human); compound 10.0 µM) was 79% and the residual activity (NUAK1 (human); compound 1.0 µM) was 106%. For the same compound, the residual activity (NUAK1 (human); compound 10.0 µM) was 78%, the residual activity (RPS6KA5 KD1 KD2 (human); compound 0.1 µM) was 94% and the residual activity (RPS6KA5 KD1 KD2 (human); compound 1.0 µM) was 90%. It also gave a residual activity (RPS6KA5 KD1 KD2 (human); compound 10.0 µM) of 68%, a residual activity (EEF2K (human); compound 0.1 µM) of 102% and a residual activity (EEF2K (human); compound 1.0 µM) of 106%. It also gave a residual activity (EEF2K (human); compound 10.0 µM) of 117%, a residual activity (LCK (mouse); compound 0.1 µM) of 88% and a residual activity (LCK (mouse); compound 1.0 µM) of 106%. It also gave a residual activity (LCK (mouse); compound 10.0 µM) of 58%, a residual activity (DAPK1 (human); compound 1.0 µM) of 68% and a residual activity (DAPK1 (human); compound 10.0 µM) of 25%. For the same compound, the residual activity (MAPK13 (human); compound 0.1 µM) was 91%, the residual activity (MAPK13 (human); compound 1.0 µM) was 78% and the residual activity (MAPK13 (human); compound 10.0 µM) was 85%. The residual activity (MAPK11 (human); compound 0.1 µM) was 102%, the residual activity (MAPK11 (human); compound 1.0 µM) was 89% and the residual activity (MAPK11 (human); compound 10.0 µM) was 90%. The residual activity (MAPK14 (human); compound 0.1 µM) was 87%, the residual activity (MAPK14 (human); compound 1.0 µM) was 91% and the residual activity (MAPK14 (human); compound 10.0 µM) was 99%. It also gave a residual activity (MARK1 (human); compound 1.0 µM) of 85%, a residual activity (MARK1 (human); compound 10.0 µM) of 74% and a residual activity (DYRK2 (human); compound 0.1 µM) of 98%. For the same compound, the residual activity (DYRK2 (human); compound 1.0 µM) was 94% and the residual activity (DYRK2 (human); compound 10.0 µM) was 94%.
